Data reported in patent US12338229B2, “Small molecule stimulators of steroid receptor coactivator-3 and methods of their use as cardioprotective and/or vascular regenerative agents” (BAYLOR COLLEGE OF MEDICINE, priority 2018, dated 2025).
Like-named read-outs stand apart in the source and are kept apart here.

Assays:
[1] = system: SRC-1, SRC-2 or SRC-3 fused with the DNA binding domain of Gal4; assay: Gal4 luciferase reporter (pG5-luc / pBIND-SRC) in HeLa cells; type: cell-based; conditions: pG5-luc + pBIND-SRC-1, -2 or -3
Source text: The compounds described herein stimulate SRC intrinsic transcriptional activity. HeLa cells transfected with a Gal4 responsive luciferase reporter (pG5-luc) and a construct encoding SRC-1, SRC-2 or SRC-3 fused with the DNA binding domain of Gal4 (pBIND-SRC-1, pBIND-SRC-2 or pBIND-SRC-3) were exposed to treatments with compounds as described herein, including MCB-613, Compound 10-1, and Compound 10-2.

in vivo = conditions: CD-1, mouse
Method: (§2) Each of the three compounds was dissolved in DMSO (20 mg/mL), mixed with 30% hydroxypropyl-β-cyclodextrin at a 1:9 ratio, and administered to the CD-1 mice intraperitoneally (ip) or orally (po) through a gavage. After compound administration, blood samples (3 mice per compound) were collected at nine time points, i.e., at 5 minutes, 0.25 hours, 0.5 hours, 1 hour, 2 hours, 4 hours, 8 hours, 12 hours, and 24 hours, through the tail vein. Plasma was isolated from these blood samples and the compound plasma concentrations were determined by HPLC-MS/MS. Pharmacokinetic parameters were calculated using the program PKSolver, an add-in program for use in analyzing pharmacokinetic and pharmacodynamics data analysis, as described in Zhang et al., Computer Methods and Programs in Biomedicine, 99: 306-314 (2010).

[2] = mouse, in vivo
Method: as §2

[3] = system: mice after myocardial infarction; assay: Myocardial infarction model, permanent LAD ligation (echocardiography, histology, immunostaining, PET, EM); type: in vivo, ICR (CD1) mice; conditions: six weeks post-MI, picrosirius red
Method: Model of heart failure in adult mice. To induce myocardial infarction (MI) in 8- to 10-week-old mice, the left anterior descending (LAD) artery was permanently ligated. Briefly, mice were anesthetized with 2% isoflurane and then intubated. The heart was exposed by performing a thoracotomy through the fourth or fifth intercostal space and an 8-0 nylon suture was tied around the LAD artery. 10 uls of Adenoviral SRC-3 (Ad-SRC-3) or adenoviral GFP (Ad-GFP) at a titre of 9×10^9 pfu/ml was injected into the anterior free wall near left ventricular descending coronary artery. To assess cell cycle entry, the analog 5-ethynyl-2′-deoxyuridine (EdU; 0.2 g/L, Santa Cruz, SC-284628A) was added to the drinking water for the 9 day duration of the experiment. Cell proliferation was measured using Click-iT EdU kit (Invitrogen, C10339). The initial dose of MCB-613 was administered intraperitoneally at 20 mg/kg 2 hours after surgery. Subsequent injections of the same dose were given for 6 additional days, and then repeated doses were given for 3 days at week 9 and week 16. Mice were harvested at indicated time points for analyses.
Echocardiography. Cardiac function was determined by echocardiography (VisualSonics, Vevo 2100, 40 Mhz-550S probe). After alignment in the transverse B-mode with the papillary muscles, cardiac function was measured on M-mode images.
(§1) Histological analysis. Whole hearts were fixed with 10% formalin, embedded in paraffin, and sectioned at 7 μm intervals. Each slide had 3 or 10 sections, which started at the apex and ended at the suture ligation site (approximately 30-50 slides). Sections at the papillary level (slides 20-30) were stained with Picrosirius red to identify areas of fibrosis. Infarct size was determined using a length-based approach.
Immunostaining analysis. Immunohistochemistry and immunofluorescent staining experiments were performed on FFPE (formalin-fixed and paraffin-embedded sections). TUNEL staining to detect apoptotic cells was done using the DeadEnd™ Fluorometric TUNEL System manufacturer's protocol (Promega, GS3250).
Model of heart failure in adult mice. To induce MI in eight- to ten-week-old mice, the left anterior descending (LAD) artery was permanently ligated. Briefly, mice were anesthetized with 2% isoflurane and then intubated. The heart was exposed by performing a thoracotomy through the fourth or fifth intercostal space and an 8-0 nylon suture was tied around the LAD. The initial dose of MCB-613 was administered intraperitoneally at 20 mg/kg, two hours after surgery. Subsequent injection at the same time of the day and same dose were given for six additional days, and then repeated doses were given for three days at week nine and week 16. Mice were harvested at the indicated time points for analyses.
Echocardiography. Cardiac function was determined by echocardiography (VisualSonics, Vevo 2100, 40 Mhz-550S probe). After alignment in the transverse B-mode with the papillary muscles, cardiac function was measured on M-mode images. Animal numbers for cardiac function in FIG. 11A are Day 0 control (17); MCB-613 (15), Day 1 control (10); MCB-613 (12), Day 14 […], Day 56 control (12); MCB-613 (15), Day 70 control (8); MCB-613 (10), Day 80 control (8); MCB-613 (11), Day 133 control (3); and MCB-613 (3).
as §1, with “three (3) to ten (10)” for “3 or 10”, “approach. TUNEL staining to detect apoptotic cells was performed using the DeadEnd™ Fluorometric TUNEL System (Promega, GS3250).” for “approach.”
Electron Microscopy. […]

[4] = system: mice after myocardial infarction; assay: Progressive maximal exercise test, indirect calorimetry (VO2, VCO2); type: in vivo; conditions: after myocardial infarction
Method: RER, VO2 and VCO2 measurements. Respiratory exchange ratio (RER), oxygen consumption (VO^2) and carbon dioxide expiration (VCO2) were measured by indirect calorimetry using a progressive maximal exercise test until mice reached exhaustion.
RER, VO2 and VCO2 measurements. RER, VO2 and VCO2 were measured by indirect calorimetry using a progressive maximal exercise test until mice reached exhaustion.

AUC(0-inf) (in vivo; ip) [ng·h/mL] | AUC(0-t) (in vivo; ip) [ng·h/mL] | Cmax (in vivo; ip) [ng/mL] | Tmax (in vivo; ip) [min] | half-life (in vivo; ip, Terminal phase t1/2) [min] | half-life (in vivo; ip, t1/2) [min] | AUC(0-inf) (in vivo; po) [ng·h/mL] | AUC(0-t) (in vivo; po) [ng·h/mL] | Cmax (in vivo; po) [ng/mL] | Tmax (in vivo; po) [min] | half-life (in vivo; po, Terminal phase t1/2) [min] | half-life (in vivo; po, t1/2) [min] | Cl ([2]; ip) | Cl ([2]; po) | Compound | intrinsic transcriptional activity of SRCs (luciferase) [1] | infarct size vs saline control [3] | cardiovascular fitness (VCO2, VO2, FIG. 9) [4]
482 | 334 | 463 | 4.8 | 954 | 15 | 135 | 131 | 182 | 15 | 1630 | 46.8 | 1.7 (mg)/(ng/mL)/h | 6.1 (mg)/(ng/mL)/h | COc1cccc(/C=C2\CN(CCC(C)C)C/C(=C\c3cccc(OC)c3)C2=O)c1 [Compound 10-2, (3E,5E)-1-isopentyl-3,5-bis(3-methoxybenzylidene)piperidin-4-one] | selectively stimulates the intrinsic transcriptional activity of SRCs | – | –
851 | 623 | 357 | 15 | 1090 | 38.4 | 113 | 98.4 | 53.2 | 30 | 612 | 72 | 0.97 (mg)/(ng/mL)/h | 7.3 (mg)/(ng/mL)/h | COc1ccccc1/C=C1\CN(CCC(C)C)C/C(=C\c2ccccc2OC)C1=O [Compound 10-1, (3E,5E)-1-isopentyl-3,5-bis(2-methoxybenzylidene)piperidin-4-one] | selectively stimulates the intrinsic transcriptional activity of SRCs | decrease in infarct size | improves cardiovascular fitness after myocardial infarction
